The values that follow come from ChEMBL document CHEMBL3507680, “University of Dundee, Gates Library screen for HepG2 cell viability”.

The nature of this data set: Human HepG2 cell viability assay in 384 well format. The class given is toxicity, cell-based. Set-up: dose 125 nL, time 70.5 hour; cytotoxicity at 70.5 h: concentration not given beside the values. The conditions noted are these: HepG2 cells, read-out: Inhibition.

In the case of `COC(=O)CCCC(=O)N1CCC(CO)(CCc2ccccc2)CC1`, the cytotoxicity at 70.5 h is -11.9%.
`O=C(Nc1ccccc1)c1cccc(S(=O)(=O)NC[C@@H]2C[C@H](F)CN2)c1`: the cytotoxicity at 70.5 h is 6.01%.
Take `NC(=O)c1noc(Cn2ncc3ccccc3c2=O)n1`: the cytotoxicity at 70.5 h came out at 12.9%.
For the molecule `Cc1ccc2c(c1)c(CNC(C)Cn1ccnc1)nn2C` (stereo not drawn), the cytotoxicity at 70.5 h is -5.3%.
To `O=S(=O)(CCNCc1cc(O)c2cc(F)ccc2n1)N1CCCC1` belongs 17.6%; to `CCN(CCO)C[C@@H]1CN(c2cccc(C(F)(F)F)n2)C[C@@H]1CO`, -11.5%; to `COCCCN1CCCC2(CCN(S(=O)(=O)c3cccnc3)C2)C1=O` (stereo not drawn), 9.1%.
To `CC(NS(C)(=O)=O)C(=O)N(C)Cc1csc(-c2cccs2)n1` (stereo not drawn) belongs -13.4%.
For `CC1(C)CNC(=O)c2nc(C3CCN(C(=O)C4CC4)CC3)[nH]c2C1` the value was -11%; for `CNC(=O)C(C)(C)N(C)C(=O)c1cc(COc2ccccc2OC)[nH]n1`, -5.11%; for `CN(CC1Cc2ccccc2CN1C)C(=O)CSc1nccn1C` (stereo not drawn), -8.61%.
Consider `CC(C)Cc1ncc2c(n1)CN(c1cc(N)nc(N)n1)C2`, for which the cytotoxicity at 70.5 h is -1.3%.
To `CC(C)Cc1noc(CN(C)C[C@]2(O)CCCN3CCCC[C@@H]32)n1` belongs -12.8%; to `COc1ccc(C(=O)N2CCC(c3nccn3C(C)C)CC2)cc1OC`, 22.5%.
For the molecule `CC(=O)Nn1c(C)cc(CN2CCCN(Cc3ccncc3)CC2)c1C`, the cytotoxicity at 70.5 h was -0.666%.
On to `COc1cccc(N2CCN(Cc3nccc(OC)c3OC)CC2=O)c1`, for which the cytotoxicity at 70.5 h was -0.0493%.
In the case of `Cc1cc(N2CCCN3CCC[C@H]3C2)n2nc(C)c(C)c2n1`, the cytotoxicity at 70.5 h is -4.24%.
Consider `Cc1ccc2nc(CN3CCCCC3CCn3cccn3)cn2c1` (stereo not drawn), for which the cytotoxicity at 70.5 h stood at 6.68%.
To `CN(Cc1cccc(-n2cccn2)c1)Cc1c[nH]cn1` belongs -0.523%; to `CC1(Cc2cccnc2)NCCc2[nH]cnc21` (stereo not drawn), 10.5%.
For `Cc1cc(F)ccc1S(=O)(=O)N1C[C@@H](C)[C@@](C)(O)C1` the value was -3.25%; for `CC(C)N1CCC(N2CCCC(C(=O)NCC3(C)COC3)C2)CC1` (stereo not drawn), -3.7%; for `CCN(CC)C(=O)C1CCCN(c2ncnc3oc(C)nc23)C1` (stereo not drawn), -5.71%.
Turning to `CCc1noc(CN(C)C(=O)c2ccccc2-c2ncn[nH]2)n1`, the cytotoxicity at 70.5 h was -2.67%.
To `CS(=O)(=O)N1C[C@@H]2CC[C@H](C1)N(C(=O)Cn1ccc3ccccc31)C2` belongs -4.09%; to `Cn1cc(C(=O)N2CC[C@H](N3CCOCC3)[C@H](CCCO)C2)cn1`, -12.1%; to `CCCc1nc(C)cc(N2CCC3(CCC(=O)N(CCO)C3)CC2)n1`, -4.4%.
In the case of `COCCn1ccnc1-c1cc(CN2CCCCC2)cs1`, the cytotoxicity at 70.5 h came to 33.9%.
For the molecule `CSCc1noc(CNC(=O)C2CCN(C(C)C)CC2)n1`, the cytotoxicity at 70.5 h is -12%.
For `Cc1nnc(N2CCC(CCn3ccnc3C)CC2)o1` the value was -5.62%.
In the case of `CC(=O)NCCC1CCCCN1S(=O)(=O)c1ccc2ccccc2c1` (stereo not drawn), the cytotoxicity at 70.5 h was 4.83%.
To `CN(C)c1ccc(C(=O)NCCCc2ccccn2)cn1` belongs -1.92%.
On to `Cc1ccnc(Cn2cc(-c3cccc(C(C)N(C)C)c3)nn2)c1` (stereo not drawn), for which the cytotoxicity at 70.5 h is -6.95%.
To `COc1ncc(-c2ccc(O)cc2)c(OC)n1` belongs -6.77%.
For `Cc1cc(C(=O)N2CCCC(C(=O)c3cccs3)C2)c(=O)[nH]c1C` (stereo not drawn) the value was 17.8%; for `CCCc1ccc(CN2CCN(C(=O)NCC)[C@H]3CS(=O)(=O)C[C@H]32)o1`, -15.3%.
For `CSCC(=O)N1CCCC(CO)(CC2CC2)C1` (stereo not drawn) the value was -11%; for `Cc1ccc([C@@H]2CN(C(=O)c3ccsc3)C[C@H]2NC(=O)C2CC2)cc1`, -8.66%.
Take `CC(C)c1nc(CN(C)C(=O)[C@H](N)Cc2ccc(Cl)cc2)cs1`: the cytotoxicity at 70.5 h is 2.45%.
For `CC(C)N1CCCC2(CCN(c3nccc(C(F)(F)F)n3)C2)C1=O` (stereo not drawn) the value was -3.02%.
To `Cc1cc(C)c2c(c1)C(CC(=O)O)C(=O)N2` (stereo not drawn) belongs 24.2%.
`CC(C)c1cc(CN2CCN(c3cccnc3)CC2)n(C)n1`: the cytotoxicity at 70.5 h came out at 5.33%.
To `Cc1cc(N2CCC3(CCCN(C4CCOCC4)C3=O)C2)ccn1` (stereo not drawn) belongs -4.29%.
In the case of `Cc1ccc(CN(Cc2ccccn2)C(=O)C2CCCCCN2C)s1` (stereo not drawn), the cytotoxicity at 70.5 h stood at 27.3%.
For `CN1CCC(Cc2nc(-c3ccnn3C)n(Cc3ccccc3)n2)CC1` the value was 12.7%; for `O=C(Cc1ccncc1)N1C[C@@H]2CC[C@H](C1)N(Cc1ccccc1)C2=O`, -3.45%; for `O=C(c1ccc(C2CCCN2)s1)N1CCN2CCC1CC2` (stereo not drawn), -5.88%.
Consider `CCN(Cc1noc(C)n1)C(=O)CCn1c(C)cc2ccccc21`, for which the cytotoxicity at 70.5 h is -6.29%.
With `O=C(CCCN1CCCCC1)N1CCC(c2nnc[nH]2)CC1`, the cytotoxicity at 70.5 h was -4.84%.
For `Cc1nccn1CCN1C(=O)CC2(CCCC2)CC1=O` the value was -9%; for `Cc1ccnc(NCCNC(=O)Cc2c(C)[nH]c3c(C)ccc(C)c23)c1`, 34.5%; for `CN(C)CC1(O)CCCN(c2ccnc3c(C(F)(F)F)cccc23)C1` (stereo not drawn), -5.96%.
To `COc1nc2c(cc1C(=O)NCCc1nc3c(s1)CCC3)CCC2` belongs 3.25%.
Regarding `CC(C)N1CCC(C(=O)N2CCCN(c3ccccc3)CC2)CC1`, the cytotoxicity at 70.5 h was -8.78%.
On to `CC(=O)N1CCCn2nc(CNC(=O)N3CCCCC3)cc2C1`, for which the cytotoxicity at 70.5 h was found to be 19.2%.
On to `CCCc1cnc(C)nc1NCCc1nc(C)cc(=O)[nH]1`, for which the cytotoxicity at 70.5 h is -9.64%.
For `Cc1cc2cccc(C(=O)N3CC[C@](C)(O)[C@H](C)C3)c2o1` the value was 14.5%; for `CCc1cc(-c2nccn2-c2ccccc2CN2CCOCC2)on1`, 16.1%; for `CC(=O)N1CCc2c(nc(N(C)C)nc2N(C)CCO)C1`, -2.49%.
For `CNc1nc(C(=O)N2CCC3(CCCN(C)C3=O)C2)cs1` (stereo not drawn) the value was -4.39%.
For `O[C@@]1(Cn2cnc(Cl)c2Cl)CCCN2CCCC[C@@H]21` the value was -12.5%; for `COCCOCC(=O)N1CCCC(c2ncc[nH]2)C1` (stereo not drawn), -16.6%; for `CC(C)Oc1cccc(F)c1C(C(=O)O)N1CCCC1` (stereo not drawn), -11.9%.
Consider `Cc1nn(C)c(C)c1NC(=O)c1cccc(CN2CCS(=O)(=O)CC2)c1`, for which the cytotoxicity at 70.5 h was -6.09%.
As for `Cc1ccc(C(=O)N2C[C@@H]3CC[C@H](C2)N(CC2CCC2)C3)s1`, the cytotoxicity at 70.5 h turned out to be 7.49%.
Consider `CCNC(=O)[C@@H]1C[C@@H](N)CN1C(=O)c1cc2ccccc2[nH]1`, for which the cytotoxicity at 70.5 h was -1.64%.
As to `OCC1(Cc2ccc(Cl)cc2)CCN(Cc2cccnc2)CC1`, the cytotoxicity at 70.5 h stood at 10.8%.
For the molecule `COCC(=O)N1CCCC1c1ccc(C(=O)NCc2ccccc2Cl)s1` (stereo not drawn), the cytotoxicity at 70.5 h is -11.5%.
Regarding `CC(C)c1cc(C(=O)N[C@H]2CN(C3CCOCC3)C[C@@H]2C2CC2)no1`, the cytotoxicity at 70.5 h is -6.62%.
In the case of `COc1ccc(C(=O)N2CCOC(Cc3cccc(C(F)(F)F)c3)C2)o1` (stereo not drawn), the cytotoxicity at 70.5 h was -7.8%.
As to `c1ccc(-c2ncn(CCCN3CCOCC3)c2-c2ccncc2)cc1`, the cytotoxicity at 70.5 h was -6.69%.
For `CCN(CC)CCn1ccnc1-c1cccc(O)c1`, the cytotoxicity at 70.5 h stood at 1.22%.
On to `Fc1cccc(-c2cccc(N3CCC(NC4CCCOC4)CC3)c2)c1` (stereo not drawn), for which the cytotoxicity at 70.5 h was 33.8%.
`Cc1cccc(N2CCN(CCC(=O)NCc3cnc(C)cn3)CC2)c1`: the cytotoxicity at 70.5 h is 23.9%.
For `COc1ccc(CN2CCCC2)cc1Oc1ccc2c(c1)CC(CN)O2` (stereo not drawn) the value was -11.3%; for `O=C(O)c1cccc(CC2CCN(c3ncc(F)cn3)CC2)c1`, -9.85%.
In the case of `CSc1nccc(NCC2CNCCO2)n1` (stereo not drawn), the cytotoxicity at 70.5 h was -5.51%.
`Nc1cccc(-c2cccc3ccnn23)n1`: the cytotoxicity at 70.5 h is -6.36%.
To `CNc1ccnc(N2C[C@@H]3CC[C@H](C2)N(CCOC)C3=O)n1` belongs -8%; to `CCCc1nc(C)cc(N2CCNC(C(=O)NC3CC3)C2)n1` (stereo not drawn), 2.45%.
Turning to `Cc1cccn2cc(C(=O)N3CCCN(CC4CC4)C(C(C)C)C3)nc12` (stereo not drawn), the cytotoxicity at 70.5 h is -8.2%.
To `N#Cc1cccnc1N1CCCC(CO)(Cc2cccc(Cl)c2)C1` (stereo not drawn) belongs 2.5%; to `CN(C(=O)Cc1ccn(C)c1)C1CCCN(C2Cc3ccccc3C2)C1` (stereo not drawn), 1.52%.
For `CC(CO)NCc1csc2c1CCCC2` (stereo not drawn) the value was 0.572%; for `COc1ccccc1-n1nc(-c2ccco2)n(CC(N)=O)c1=O`, -7.68%; for `COCCN(Cc1sccc1C)C(=O)c1c(O)cccc1F`, -5.43%.
On to `Cc1ccc(CN2CCN(c3ncccc3Cl)CC2CCO)cc1` (stereo not drawn), for which the cytotoxicity at 70.5 h was -0.712%.
To `CC(C)c1cnc(N2C[C@H](CO)C[C@H](CN3CCOCC3)C2)nc1` belongs -4.2%; to `CCCN1CCCn2nc(CNS(=O)(=O)c3ccc(F)cc3)cc2C1`, 4.7%; to `Cc1cccc(C(C(=O)NC(C)(C)CN2CCOCC2)N(C)C)c1` (stereo not drawn), 25.2%.
As for `Cc1ccc2nccc(C(=O)N3CCOC(CCN(C)C)C3)c2c1` (stereo not drawn), the cytotoxicity at 70.5 h was found to be 15.6%.
For `O=S(=O)(c1ccc(-c2cnco2)cc1)N1CCCC(O)(CO)CC1` (stereo not drawn) the value was 12.5%.
For the molecule `O=C(c1ccc(C2CCCN2)s1)N1CC=CC1` (stereo not drawn), the cytotoxicity at 70.5 h was -6.78%.
As to `Cc1nc(NCCSc2cnn[nH]2)c2c(C)noc2n1`, the cytotoxicity at 70.5 h came to 7.78%.
For `Cc1nnc(CN2CCCC(CCc3ccccc3C(F)(F)F)C2)o1` (stereo not drawn) the value was -7.48%.
Take `Cc1cnccc1N1CCN(C(=O)CCCN2CCCCC2)CC1`: the cytotoxicity at 70.5 h is -3.26%.
For `CC(C)N(C)C(=O)CN1C(=O)OC[C@@H]1c1ccccc1` the value was 0.286%; for `COCC(=O)N1CCCC1c1ccc(C(=O)NCCN2CCCCC2)s1` (stereo not drawn), -10.2%.
